Data from ChEMBL document CHEMBL6071157, “Improved N-phenylpyrrolamide inhibitors of DNA gyrase as antibacterial agents for high-priority bacterial strains” (Eur J Med Chem, 2024).
In brackets after ≈: the same amount, converted by molar mass.

Columns and labels:
[1] = Metabolic stability in human liver microsomes assessed as half life at 1 uM preincubated for 10 mins followed by NADPH addition and measured after 5 to 60 mins by LC-MS/MS analysis; type: ADME, Microsome; conditions: time 15-70 min
Pseudomonas aeruginosa = test: Antibacterial activity against Pseudomonas aeruginosa ATCC 27853 assessed as inhibition of bacterial growth by broth microdilution metho; type: functional
[2] = Inhibition of Escherichia coli DNA topoisomerase-IV relaxation plate assay
Enterococcus faecalis = test: Antibacterial activity against Enterococcus faecalis ATCC 29212 assessed as inhibition of bacterial growth by broth microdilution method; type: functional
Acinetobacter baumannii = test: Antibacterial activity against Acinetobacter baumannii ATCC 17978 assessed as inhibition of bacterial growth by broth microdilution method; type: functional
Staphylococcus aureus [3] = test: Antibacterial against vancomycin-intermediate Staphylococcus aureus ATCC 700699 assessed as inhibition of bacterial growth by broth dilution method; type: functional
Escherichia coli [4] = test: Antibacterial activity against Escherichia coli ATCC 25922 assessed as inhibition of bacterial growth by broth microdilution method; type: functional
DNA gyrase [5] = biological target: DNA gyrase (Escherichia coli, UniProt P0AES4+P0AES6); test: Inhibition of Escherichia coli DNA gyrase by supercoiling plate assay; type: protein-complex assay
Enterococcus faecium = test: Antibacterial activity against vancomycin-resistant Enterococcus faecium ATCC 700221 assessed as inhibition of bacterial growth by broth microdilution method; type: functional
Klebsiella pneumoniae = test: Antibacterial activity against Klebsiella pneumoniae ATCC 10031 assessed as inhibition of bacterial growth by broth microdilution method; type: functional
[6] = Metabolic stability in mouse liver microsomes assessed as intrinsic clearance at 1 uM preincubated for 10 mins followed by NADPH addition and measured after 5 to 60 mins by LC-MS/MS analysis; type: ADME, Microsome; conditions: time 15-70 min, read-out: CLH
Staphylococcus aureus [7] = test: Antibacterial against methicillin resistant Staphylococcus aureus ATCC 43300 assessed as inhibition of bacterial growth by broth microdilution method; type: functional; conditions: time 24 hrs
[8] = biological target: T1, DNA topoisomerase 2-alpha (Homo sapiens, UniProt P11388); test: Inhibition of human DNA topoisomerase 2-alpha using linear pBR322 as substrate assessed as conversion of NADH to NAD+ by measuring residual activity at 100 uM preincubated for 10 to 15 mins in presence of pyruvate kinase/lactate dehydrogenase mix followed by ATP addition and measured after 30 mins by ATPase assay relative to control; conditions: time 40-55 min
MCF7 = test: Cytotoxicity against human MCF7 cells assessed as cell viability at 50 uM incubated for 72 hrs by CellTiter 96 aqueous one solution reagent based MTS assay relative to control; type: functional; conditions: read-out: Activity
[9] = Metabolic stability in mouse liver microsomes assessed as half life at 1 uM preincubated for 10 mins followed by NADPH addition and measured after 5 to 60 mins by LC-MS/MS analysis; type: ADME, Microsome; conditions: time 15-70 min
[10] = Metabolic stability in human liver microsomes assessed as intrinsic clearance at 1 uM preincubated for 10 mins followed by NADPH addition and measured after 5 to 60 mins by LC-MS/MS analysis; type: ADME, Microsome; conditions: time 15-70 min, read-out: CLH
Staphylococcus aureus [11] = test: Antibacterial activity against Staphylococcus aureus ATCC 29213 assessed as inhibition of bacterial growth by broth microdilution method; type: functional
Enterobacter cloacae = test: Antibacterial activity against Enterobacter cloacae subsp. cloacae ATCC 13047 assessed as inhibition of bacterial growth by broth microdilution method; type: functional
Escherichia coli [12] = test: Inhibition of Escherichia coli DNA topoisomerase-IV assessed as residual activity at 10 uM by relaxation plate assay relative to control
DNA gyrase [13] = biological target: DNA gyrase (Staphylococcus aureus, UniProt P0A0K8+P20831); test: Inhibition of Staphylococcus aureus DNA gyrase by supercoiling plate assay; type: protein-complex assay
Escherichia coli [14] = test: Inhibition of Escherichia coli DNA topoisomerase-IV assessed as residual activity at 1 uM by relaxation plate assay relative to control
[15] = biological target: T1, DNA topoisomerase 2-alpha; test: Inhibition of human DNA topoisomerase 2-alpha using linear pBR322 as substrate assessed as conversion of NADH to NAD+ preincubated for 10 to 15 mins in presence of pyruvate kinase/lactate dehydrogenase mix followed by ATP addition and measured after 30 mins by ATPase assay

T1 sequence (P11388 whole entry): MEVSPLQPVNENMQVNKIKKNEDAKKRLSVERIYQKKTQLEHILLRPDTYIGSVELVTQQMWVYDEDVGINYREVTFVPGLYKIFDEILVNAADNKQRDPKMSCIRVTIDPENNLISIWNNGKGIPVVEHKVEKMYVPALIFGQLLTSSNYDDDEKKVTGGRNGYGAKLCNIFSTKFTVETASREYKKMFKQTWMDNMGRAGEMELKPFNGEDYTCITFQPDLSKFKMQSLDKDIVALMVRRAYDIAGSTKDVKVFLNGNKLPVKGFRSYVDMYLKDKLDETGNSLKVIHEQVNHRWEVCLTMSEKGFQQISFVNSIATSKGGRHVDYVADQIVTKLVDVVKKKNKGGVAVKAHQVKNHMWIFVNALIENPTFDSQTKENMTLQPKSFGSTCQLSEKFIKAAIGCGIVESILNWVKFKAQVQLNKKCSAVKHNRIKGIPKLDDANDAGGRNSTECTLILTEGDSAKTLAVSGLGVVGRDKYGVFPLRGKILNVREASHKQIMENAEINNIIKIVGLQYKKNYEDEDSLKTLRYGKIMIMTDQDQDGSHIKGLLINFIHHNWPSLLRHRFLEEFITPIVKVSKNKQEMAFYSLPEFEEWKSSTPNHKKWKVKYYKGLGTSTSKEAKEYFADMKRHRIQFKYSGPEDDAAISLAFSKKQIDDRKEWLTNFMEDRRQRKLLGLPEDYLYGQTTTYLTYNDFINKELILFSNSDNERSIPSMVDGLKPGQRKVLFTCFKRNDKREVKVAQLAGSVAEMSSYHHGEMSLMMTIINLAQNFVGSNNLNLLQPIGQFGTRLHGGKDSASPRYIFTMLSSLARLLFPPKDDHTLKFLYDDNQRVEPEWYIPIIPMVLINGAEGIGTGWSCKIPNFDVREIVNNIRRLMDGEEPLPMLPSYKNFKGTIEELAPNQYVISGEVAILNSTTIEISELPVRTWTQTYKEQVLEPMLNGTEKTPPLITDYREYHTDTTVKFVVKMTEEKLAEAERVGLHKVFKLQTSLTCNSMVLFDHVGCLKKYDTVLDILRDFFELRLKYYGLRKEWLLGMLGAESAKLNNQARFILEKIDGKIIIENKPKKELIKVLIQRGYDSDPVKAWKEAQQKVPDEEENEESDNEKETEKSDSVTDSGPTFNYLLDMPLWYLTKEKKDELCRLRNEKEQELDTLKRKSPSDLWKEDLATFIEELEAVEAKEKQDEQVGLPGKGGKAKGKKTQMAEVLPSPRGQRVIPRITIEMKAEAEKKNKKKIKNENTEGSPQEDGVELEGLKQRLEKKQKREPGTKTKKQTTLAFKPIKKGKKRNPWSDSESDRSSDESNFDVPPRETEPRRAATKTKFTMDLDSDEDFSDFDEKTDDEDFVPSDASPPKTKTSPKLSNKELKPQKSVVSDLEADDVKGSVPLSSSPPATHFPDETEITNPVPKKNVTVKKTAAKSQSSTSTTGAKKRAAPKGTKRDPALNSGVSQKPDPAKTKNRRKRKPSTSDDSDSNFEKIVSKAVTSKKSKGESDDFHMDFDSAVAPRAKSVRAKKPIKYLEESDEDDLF
Chain of DNA gyrase (Staphylococcus aureus, UniProt P0A0K8+P20831) (P0A0K8 whole entry): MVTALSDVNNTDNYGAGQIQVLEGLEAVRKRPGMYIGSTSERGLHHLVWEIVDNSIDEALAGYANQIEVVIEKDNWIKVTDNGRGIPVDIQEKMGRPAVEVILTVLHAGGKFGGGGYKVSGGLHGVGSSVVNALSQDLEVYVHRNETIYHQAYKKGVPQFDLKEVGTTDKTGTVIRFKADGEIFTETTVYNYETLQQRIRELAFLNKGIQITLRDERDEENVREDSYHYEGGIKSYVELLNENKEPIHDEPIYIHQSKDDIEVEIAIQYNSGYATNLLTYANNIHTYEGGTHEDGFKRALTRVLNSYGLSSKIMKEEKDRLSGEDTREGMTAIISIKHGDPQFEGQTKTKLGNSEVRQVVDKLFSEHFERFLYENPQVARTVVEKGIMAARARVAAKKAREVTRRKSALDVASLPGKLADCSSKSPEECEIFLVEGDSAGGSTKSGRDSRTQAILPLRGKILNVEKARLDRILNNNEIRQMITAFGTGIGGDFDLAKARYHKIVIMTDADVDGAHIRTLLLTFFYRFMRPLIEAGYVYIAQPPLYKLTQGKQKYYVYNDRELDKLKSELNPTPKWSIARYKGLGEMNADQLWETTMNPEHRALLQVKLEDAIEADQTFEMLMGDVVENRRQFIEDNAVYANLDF
Chain of DNA gyrase (Staphylococcus aureus, UniProt P0A0K8+P20831) (P20831 whole entry): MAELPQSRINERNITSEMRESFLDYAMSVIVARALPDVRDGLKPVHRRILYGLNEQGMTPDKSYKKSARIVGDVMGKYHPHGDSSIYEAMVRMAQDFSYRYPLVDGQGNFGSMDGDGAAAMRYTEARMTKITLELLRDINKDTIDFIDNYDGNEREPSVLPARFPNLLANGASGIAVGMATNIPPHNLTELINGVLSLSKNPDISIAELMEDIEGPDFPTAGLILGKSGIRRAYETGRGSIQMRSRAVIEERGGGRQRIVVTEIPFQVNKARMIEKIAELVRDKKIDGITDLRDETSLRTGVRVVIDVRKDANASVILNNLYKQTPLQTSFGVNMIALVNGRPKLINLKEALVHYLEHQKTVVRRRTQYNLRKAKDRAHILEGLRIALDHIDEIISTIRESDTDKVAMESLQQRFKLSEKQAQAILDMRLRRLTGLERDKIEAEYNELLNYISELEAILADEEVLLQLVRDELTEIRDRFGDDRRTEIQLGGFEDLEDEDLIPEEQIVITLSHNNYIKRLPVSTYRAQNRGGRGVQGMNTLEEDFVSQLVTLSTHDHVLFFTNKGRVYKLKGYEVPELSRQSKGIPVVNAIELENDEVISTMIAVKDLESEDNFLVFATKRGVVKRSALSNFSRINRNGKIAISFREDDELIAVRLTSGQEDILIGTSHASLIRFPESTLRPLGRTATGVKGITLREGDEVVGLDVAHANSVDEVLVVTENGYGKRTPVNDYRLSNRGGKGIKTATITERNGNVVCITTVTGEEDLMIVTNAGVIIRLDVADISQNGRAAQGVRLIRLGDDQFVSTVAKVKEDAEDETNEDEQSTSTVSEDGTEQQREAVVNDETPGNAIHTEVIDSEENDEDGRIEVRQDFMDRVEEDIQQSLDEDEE

Row | SMILES | MIC (Pseudomonas aeruginosa) [µg/mL] | IC50 [2] [nM] | MIC (Enterococcus faecalis) [µg/mL] | MIC (Acinetobacter baumannii) [µg/mL] | MIC (Staphylococcus aureus [3]) [µg/mL] | MIC (Escherichia coli [4]) [µg/mL] | IC50 (DNA gyrase [5]) [nM] | MIC (Enterococcus faecium) [µg/mL] | MIC (Klebsiella pneumoniae) [µg/mL] | microsomal CLint at 1 µM [6] [µL/min/mg] | MIC (Staphylococcus aureus [7]) [µg/mL] | Activity [8] [%] | viability at 50 µM (MCF7) [%] | half-life at 1 µM [9] [h] | microsomal CLint at 1 µM [10] [µL/min/mg] | MIC (Staphylococcus aureus [11]) [µg/mL] | MIC (Enterobacter cloacae) [µg/mL] | IC50 (DNA gyrase [13]) [nM] | other results
1 | Cc1[nH]c(C(=O)Nc2ccc(-c3noc(=O)[nH]3)cc2N2CCCC2)c(Cl)c1Cl | > 64 | 2410 | < 0.031 | > 64 | < 0.031 | > 64 | 12.6 | 0.063 (≈ 0.149 µM) | > 64 | 11 | 0.5 (≈ 1.18 µM) | 99 | 119 | 2.1 | 17.6 | > 64 | > 64 | – | half-life at 1 µM [1]: 1.31 h
2 | Cc1[nH]c(C(=O)Nc2ccc(-n3nn[nH]c3=O)cc2N2CC[C@H](NC(=O)OC(C)(C)C)C2)c(Cl)c1Cl | – | – | – | – | – | – | 212 | – | – | – | – | 95 | – | – | – | – | – | – | Activity (Escherichia coli [12]): 72%
3 | Cc1[nH]c(C(=O)Nc2ccc(-c3noc(=O)[nH]3)cc2N2CCN(c3ccccc3)CC2)c(Cl)c1Cl | > 64 | – | 0.125 (≈ 0.243 µM) | > 64 | 2 (≈ 3.9 µM) | > 64 | 109 | 4 (≈ 7.79 µM) | > 64 | < 9.6 | 0.063 (≈ 0.123 µM) | 98 | 68 | > 2.42 | < 9.6 | 4 (≈ 7.79 µM) | > 64 | – | half-life at 1 µM [1]: > 2.42 h; Activity (Escherichia coli [12]): 71%
4 | Cc1[nH]c(C(=O)Nc2ccc(-c3noc(=O)[nH]3)cc2N2CCNCC2)c(Cl)c1Cl.Cl | > 64 | 3150 | > 64 | > 64 | > 64 | > 64 | 6.07 | > 64 | > 64 | – | > 64 | 101 | – | – | – | > 64 | > 64 | – | –
5 | O=C(O)Cc1ccccc1Nc1c(Cl)cccc1Cl [DICLOFENAC] | – | – | – | – | – | – | – | – | – | 28.4 | – | – | – | 0.813 | 238 | – | – | – | –
6 | Cc1[nH]c(C(=O)Nc2ccc(-c3noc(=O)[nH]3)cc2N2CCCC(N)C2)c(Cl)c1Cl.Cl (configuration not stated) | > 64 | 145 | 8 | > 64 | > 64 | > 64 | 2.49 | 8 | 16 | – | > 64 | 91 | 95 | – | – | > 64 | > 64 | 55.8 | –
7 | C[C@]12CC[C@H]3[C@@H](CCC4=CC(=O)CC[C@@]43C)[C@@H]1CC[C@@H]2O [TESTOSTERONE] | – | – | – | – | – | – | – | – | – | 169 | – | – | – | 0.137 | 60.9 | – | – | – | half-life at 1 µM [1]: 0.378 h
8 | Cc1[nH]c(C(=O)Nc2ccc(-c3noc(=O)[nH]3)cc2NC2CCNCC2)c(Cl)c1Cl.Cl | > 64 | 1180 | > 64 | > 64 | > 64 | > 64 | 9.66 | > 64 | > 64 | – | > 64 | 101 | – | – | – | > 64 | > 64 | 249 | –
9 | Cc1[nH]c(C(=O)Nc2ccc(-c3noc(=O)[nH]3)cc2N2CCN(C(=O)OC(C)(C)C)CC2)c(Cl)c1Cl | > 64 | – | < 0.031 | > 64 | < 0.031 | > 64 | 13.7 | 0.25 (≈ 0.465 µM) | > 64 | < 9.6 | > 64 | 95 | 78 | > 2.42 | 18.2 | > 64 | > 64 | – | Activity (Escherichia coli [14]): 71%
10 | Cc1[nH]c(C(=O)Nc2ccc(-n3nn[nH]c3=O)cc2N2CC[C@H](N)C2)c(Cl)c1Cl.Cl | > 32 | – | 64 | > 32 | 64 | > 32 | 4.9 | > 32 | > 32 | – | > 32 | 108 | – | – | – | > 32 | > 32 | 121 | Activity (Escherichia coli [12]): 26%
11 | Cc1[nH]c(C(=O)Nc2ccc(-c3noc(=O)[nH]3)cc2N2CCC(NC(=O)OC(C)(C)C)CC2)c(Cl)c1Cl | > 64 | – | < 0.031 | > 64 | 0.063 (≈ 0.114 µM) | > 64 | 6.7 | 0.5 (≈ 0.907 µM) | > 64 | – | 0.5 (≈ 0.907 µM) | 30 | 44 | – | – | > 64 | > 64 | – | half-life at 1 µM [1]: 1.27 h; Activity (Escherichia coli [14]): 62%
12 | Cc1[nH]c(C(=O)Nc2ccc(-c3nnn[nH]3)cc2N2CCCC(CN)C2)c(Cl)c1Cl.Cl (configuration not stated) | > 64 | 60.3 | 8 | > 64 | > 64 | > 64 | 2.16 | 16 | 64 | – | > 64 | 91 | 117 | – | – | 16 | > 64 | 35 | –
13 | Cc1[nH]c(C(=O)Nc2ccc(-n3nn[nH]c3=O)cc2N2Cc3ccccc3C2)c(Cl)c1Cl | > 64 | – | 0.25 (≈ 0.532 µM) | > 64 | > 64 | > 64 | 111 | 0.5 (≈ 1.06 µM) | > 64 | < 9.6 | > 64 | 97 | 89 | > 2.42 | 17.3 | 16 (≈ 34 µM) | > 64 | – | half-life at 1 µM [1]: 1.33 h; Activity (Escherichia coli [12]): 105%
14 | Cc1[nH]c(C(=O)Nc2ccc(-n3nn[nH]c3=O)cc2N2CCC(N)CC2)c(Cl)c1Cl.Cl | > 32 | 11500 | > 32 | > 32 | > 32 | > 32 | 3.96 | > 32 | > 32 | – | > 32 | 103 | – | – | – | > 32 | > 32 | 216 | –
15 | Cc1[nH]c(C(=O)Nc2ccc(-c3noc(=O)[nH]3)cc2N2CCC(N)CC2)c(Cl)c1Cl.Cl | > 64 | 187 | 32 | > 64 | 16 | > 64 | 0.253 | 32 | 64 | – | 32 | – | – | – | – | 64 | > 64 | – | IC50 [15]: 26200 nM
16 | Cc1[nH]c(C(=O)Nc2ccc(-c3noc(=O)[nH]3)cc2N2CCCC(CN)C2)c(Cl)c1Cl.Cl (configuration not stated) | > 64 | 41.8 | 0.25 | > 64 | 2 | > 64 | 3.19 | 2 | 2 | – | 4 | 93 | 88 | – | – | 4 | > 64 | 24.1 | –
17 | Cc1[nH]c(C(=O)Nc2ccc(C(=O)NS(C)(=O)=O)cc2N2CCOCC2)c(Cl)c1Cl | – | – | – | – | – | – | 243 | – | – | – | – | 94 | – | – | – | – | – | – | Activity (Escherichia coli [12]): 37%
